Laboratory results published in US20100323902A1, “Live-cell signals of pathogen intrusion and methods thereof” (priority 2007, published 2010).
Read-outs that look alike come from different tables or passages of the source.

Assays:
[1] = test system: adenovirus; experiment: RWG biosensor DMR assay: modulation of the adenovirus-induced response in HeLa cells; type: cell-based; settings: HeLa cells pretreated 1 h with modulator (10 microM latrunculin A, 10 microM cytochalasin B, 40 microM DIPC), then adenovirus MOI 6,000; assay time about 1 hour
Description: Reagents—Latrunculin A and cytochalasin B were purchased from Sigma Chemical Co. (St. Louis, Mo.). Cell permeable dynamin inhibitor peptide control (DIPC) was obtained from Tocris Chemical Co. (St. Louis, Mo.). Adenoviral particles (Ad-CMV-eGFP) were purchased from Vector Biolabs (Philadelphia, Pa.). Cell-culture-ready Corning® Epic™ 96well biosensor microplates were obtained from Corning Inc (Corning, N.Y.). HeLa cell line was obtained from Americal Type Cell Culture.
Cell Culture—HeLa cells were grown in Earle minimum Essential medium (EMEM) supplemented with 10% fetal bovine serum (FBS), 4.5 g/liter glucose, 2 mM glutamine, and antibiotics. ˜10^4 HeLa cells suspended in 200 μl the appropriate medium containing 10% FBS were placed in each well of a 96well biosensor microplate, and were cultured at 37° C. under air/5% CO2 until about 95% confluency was reached.
Optical biosensor measurements—Corning® Epic® angular interrogation system with transverse magnetic or p-polarized TM0 mode (as described in, for example, U.S. Patent Publication No. US-2004-0263841, U.S. patent application Ser. No. 11/019,439, filed Dec. 21, 2004, and U.S. Patent Publication No. US-2005-0236554.) was used. […] Afterwards, the sensor microplate containing cells was placed into the optical system, and the cell responses were recorded before and after addition of a solution. […]

[2] = test system: Paxillin; experiment: Mercator Phosphoarray assay in non-infected A431 cells, Paxillin; type: cell-based, Human
Experimental: (§1) Thus, A431 cells were infected overnight in serum-free medium with various doses of Adenovirus-GFP (MOI of about 1, c, about 10, b or about 500, a). As a negative control A431 cells were treated only with serum-free medium (mock control bar “d”). At 20 hrs post infection, the infected and non-infected A431 cells were washed and then stimulated with 32 nM EGF for 30 min (FIG. 8A), 25 nM epinephrine for 1 hr (FIG. 8B), or serum-free medium for 1 hr at ambient room temperature (column e in FIGS. 8A and 8B, cell non infected and untreated). Cells extracts were then prepared according to the recommended protocol and analyzed using Mercator™ phosphoarray assay. […] The letter labeled bars (a-e) represent: a=EFG/−adenovirus MOI 500, b=EFG/adenovirus MOI 10, c=EFG/adenovirus MOI 1, d=EFG-mock, and e=untreated cells. […] The letter labeled bars (a-e) are as above for FIG. 8A.

[3] = test system: EGFR; experiment: Mercator Phosphoarray assay in non-infected A431 cells, EGFR; type: cell-based, Human
Experimental: as §1

[4] = test system: FAK; experiment: Mercator Phosphoarray assay in non-infected A431 cells, FAK; type: cell-based, Human
Experimental: as §1

[5] = test system: Akt; settings: 25 nM epinephrine for 1 hr vs untreated cells
Experimental: as §1

[6] = test system: A431 cells; experiment: Marker-induced DMR signal in A431 cells (RWG biosensor); type: cell-based, Human
Experimental: Cell Culture—Human epidermoid carcinoma A431 cells were obtained from American Type Cell Culture. For A431 cell culturing, A431 cells were grown in Dulbecco's modified Eagle's medium (DMEM) supplemented with 10% fetal bovine serum (FBS), 4.5 g/liter glucose, 2 mM glutamine, and antibiotics. about 1-2×10^4 cells at passage 3 to 5 suspended in 50 μl the growth medium were placed in each well. After cell seeding, the cells were cultured at 37° C. under air/5% CO2 until about 95% confluency was reached (about 2 days). Afterwards, the serum medium was replaced with the serum-free DMEM medium, and at the same time adenovirus particles were introduced. The resultant cells were subject to continuous culturing for overnight. […]
The doses of virus (multiplicity of infection (MOI)) used in this experiment were comprised of from 0 to about MOI 6,000. At 20 hrs post infection (PI) the A431 cells were washed with HBSS and real time kinetics of the cell responses were recorded before and after stimulation with 32 nM EGF (targeting EGFR and MAPK pathway and cell adhesion pathway), 25 nM epinephrine (targeting Gs pathway and cell adhesion pathway), 32 nM of bradykinin (targeting Gq and Gs pathway), 25 microM of SFFLR-amide or 25 microM of SLIGKV-amide (both targeting Gq and G12/13 pathways) using the Epic® system and illustrated in FIGS. 5 to 7. […]

[7] = test system: adenovirus; settings: cited from earlier work
[8] = 25 nM epinephrine for 1 hr vs untreated cells
[9] = 32 nM EGF for 30 min vs untreated cells

Molecule: C/C1=C/C(=O)O[C@@H]2C[C@@H](CC[C@H](C)/C=C\C=C\CC1)O[C@@](O)([C@@H]1CSC(=O)N1)C2 [latrunculin A, Latrunculin A]
- adenovirus-induced P-DMR signal [1]: clearly inhibited the P-DMR signal

Molecule: CNC[C@H](O)c1ccc(O)c(O)c1 [epinephrine, Epinephrine]
- phosphorylation level of paxillin [2, 8]: decreases
- phosphorylation level of EGFR [3, 8]: do not seem to be altered
- phosphorylation level of FAK [4, 8]: do not seem to be altered
- phosphorylation level of Akt [5]: do not seem to be altered
- DMR signal upon stimulation [6]: dose-dependent DMR signal

Molecule: CC[C@]1(O)C[C@@H]2CN(CCc3c([nH]c4ccccc34)[C@@](C(=O)OC)(c3cc4c(cc3OC)N(C)[C@H]3[C@@](O)(C(=O)OC)[C@H](OC(C)=O)[C@]5(CC)C=CCN6CC[C@]43[C@@H]65)C2)C1 [vinblastin]
- trafficking of adenovirus in cells [7]: block the trafficking of adenovirus

Molecule: EGF: natural ligand of epidermal growth factor receptor (NSDSECPLSHDGYCLHDGVCMYIEALDKYACNCVVGYIGERCQYRDLKWWELR; Epidermal growth factor; UniProt P01133 971-1023, looked up)
- phosphorylation level of paxillin [2, 9]: only mildly increased
- phosphorylation level of EGFR [3, 9]: increased significantly
- phosphorylation level of FAK [4, 9]: increased significantly
- DMR signal upon stimulation ([6]; A431 cells, quiescent for EGF, bradykinin, ATP and thrombin): DMR signal with three distinct and sequential phases

Molecule: C=C1[C@@H](C)[C@H]2[C@H](Cc3ccccc3)NC(=O)[C@]23OC(=O)/C=C/[C@H](O)CCC[C@@H](C)C/C=C/[C@H]3[C@@H]1O [cytochalasin B]
- trafficking of adenovirus in cells [7]: block the trafficking of adenovirus
- adenovirus-induced P-DMR signal [1]: clearly inhibited the P-DMR signal
